Assay results from patent US12017995B2, “Crystalline forms and salt forms of a kinase inhibitor” (Exelixis, Inc., priority 2018, dated 2024).
Entries after “also recorded” stand apart in the source; their conditions may differ. Where two headings read alike, the source gives them in different places.

Columns and labels:
Type in all cases: physicochemical
[1] = Dynamic vapor sorption (DVS); conditions: for crystalline form of post-DVS sample by XRPD: after sorption/desorption; for water vapor uptake / weight gain by DVS: from 5% to 95% RH
Method: Dynamic Vapor Sorption (DVS)
a. VTI: Automated vapor sorption (VS) data were collected on a VTI SGA-100 Vapor Sorption Analyzer. NaCl and PVP were used as calibration standards. Samples were dried prior to analysis. Sorption and desorption data were collected over a range from 5% to 95% RH at 10% RH increments under a nitrogen purge. The equilibrium criterion used for analysis was less than 0.0100% weight change in 5 minutes with a maximum equilibration time of 3 hours. Data were not corrected for the initial moisture content of the samples.
b. Intrinsic: Automated vapor sorption (VS) data were collected on a Surface Measurement System DVS Intrinsic instrument. Samples were not dried prior to analysis. Sorption and desorption data were collected over a range from 5% to 95% RH at 10% RH increments under a nitrogen purge. The equilibrium criterion used for analysis was less than 0.0100% weight change in 5 minutes with a maximum equilibration time of 3 hours. Data were not corrected for the initial moisture content of the samples.

[2] = pKa and log P determination (Pion Inc./Sirius Analytical Instruments Ltd.)
Method: pKa and log P Determination: pKa and log P determination were performed by Pion Inc./Sirius Analytical Instruments Ltd. in East Sussex, United Kingdom.

[3] = Stability testing in open vials, 75% RH chamber at 40° C., analysed by PLM and XRPD; conditions: 15 days / approximately 2 weeks, XRPD
Method: (§1) The physical stability of Hemifumarate Form B was investigated. Compound 1 Hemifumarate Form B was slurried in water at ambient conditions for approximately 24 hours. In a separate experiment, the material was repeatedly washed with acetone.
Stability Testing: Various Compound 1 salts were placed in open vials within a 75% RH chamber (saturated sodium chloride solution). The RH chamber was placed in a 40° C. oven for 15-16 days. Samples were analyzed by PLM and XRPD upon the end of the duration.

[4] = Disproportionation check: water slurry at ambient conditions and repeated acetone wash, XRPD of recovered material
Method: as §1
Solids were then collected by vacuum filtration and analyzed by XRPD.

| hygroscopicity by DVS (class) ([1]; 5% to 95% RH) | crystalline form of post-DVS sample by XRPD [1] | water vapor uptake / weight gain by DVS [1] | pKa [2] | logP ([2]; read-out: cationic log P) | logP ([2]; read-out: neutral log P) | hygroscopicity by DVS ([1]; DVS isotherm) | weight gain/loss through the DVS sorption/desorption experiment ([1]; sorption/desorption 5% to 95% RH, without hysteresis) | Structure (SMILES) | physical stability at 40° C. and 75% RH [3] | disproportionation of the salt in acetone ([4]; repeatedly washed with acetone) | disproportionation of the salt in water ([4]; slurried in water at ambient conditions for approximately 24 hours) |
| --- | --- | --- | --- | --- | --- | --- | --- | --- | --- | --- | --- |
| Limited | no change in crystalline form | ~0.91 wt % | 5.43 ± 0.4 | 1.79 ± 0.8 | 4.5 ± 0.5 |  |  | CNC(=O)c1cc2c(Oc3ccc(NC(=O)C4(C(=O)Nc5ccc(F)cc5)CC4)cc3)ccnc2cc1OC [Compound 1 Form A, 1-N′-(4-Fluorophenyl)-1-N-[4-[7-methoxy-6-(methylcarbamoyl)quinolin-4-yl]oxyphenyl]cyclopropane-1,1-dicarboxamide] |  |  |  |
|  | remained unchanged | about 0.2 wt % |  |  |  | not hygroscopic | less than 0.2% | CNC(=O)c1cc2c(Oc3ccc(NC(=O)C4(C(=O)Nc5ccc(F)cc5)CC4)cc3)ccnc2cc1OC [Compound 1 Hemifumarate Form B] | physically stable; also recorded: did not change by XRPD | disproportionation was not evident; also recorded: did not cause disproportionation | disproportionation was not evident; also recorded: did not cause disproportionation |
